Test results reported in patent publication US9101577B2, “Analgesic pharmaceutical composition for oral administration” (Warszawski Uniwersytet Medyczny, priority 2011, dated 2015).

Key:
Male Wistar rats [1] = assay: Acute activity after single p.o. administration, paw withdrawal test (Randall and Selitto), % of analgesia; type: in vivo, rat; settings: for analgesic activity on separate administration (oxycodone study): oxycodone 5 mg/kg; for analgesic activity on separate administration (tramadol study): tramadol 125 mg/kg
Procedure: (§1) Male Wistar rats (250-300 g) were housed in a room maintained at a temperature of 20±2° C. under 12 h-12 h light-dark cycles. The animals had free access to food and water. Experimental groups consisted of six rats.
(§2) Drugs • Morphine at a dose of 15 mg/kg, codeine at a dose of 175 mg/kg, tramadol at a dose of 125 mg/kg and oxycodone at a dose of 5 mg/kg were dissolved in distilled water; • Dihydrocodeine at a dose of 50 mg/kg was suspended in 1% solution of methylcellulose; • Magnesium lactate (in micronized form)—at a dose of 15 mg magnesium ions/kg (150 mg of magnesium lactate/kg) was suspended in 0.5% solution of methylcellulose; • Magnesium lactate in normal (non-micronized) form—at doses of 15 or 30 mg magnesium ions/kg (150 or 300 mg of magnesium lactate/kg, respectively) was suspended in 0.5% solution of methylcellulose; • Magnesium citrate (in micronized and normal form)—at a dose of 15 mg magnesium ions/kg (112 mg of magnesium citrate/kg) was dissolved in distilled water; • Magnesium hydroaspartate (in micronized and normal form)—at a dose of 15 mg magnesium ions/kg (216 mg of magnesium hydroaspartate/kg) was suspended in 0.5% solution of methylcellulose; • Magnesium chloride (in micronized and normal form)—at a dose of 15 mg magnesium ions/kg (59.5 mg of magnesium chloride/kg) was dissolved in distilled water; • Control animals received a 0.5% solution of methylcellulose, a 1% solution of methylcellulose and distilled water, respectively, according to the same time schedule.
Magnesium salts and investigated opioids were administered concomitantly.
The micronized form of magnesium salts used in experiments contains particles of magnesium compounds of size D90<50 μm.
The normal magnesium salts form used in experiments contains particles of sizes commonly available in the market.
Acute activity of investigated drugs was measured in short time periods (from 5 to 300 min) after single administration.
(§3) All drugs were administered per os (p.o.); literally—orally. However, in practice, drugs were administered intragastric via a gastric tube.
(§4) Changes in pain thresholds were determined using a mechanical stimuli—the modification of the classic paw withdrawal test described by Randall and Selitto [1957]. In order to produce mechanical stimulation, progressively increasing pressure was applied to the dorsal surface of the rat's paw using an analgesymeter. The instrument used increased the force on the paw at a rate of 32 grams per second. The nociceptive threshold was defined as force in grams, at which the rat attempted to withdraw its right hindpaw and values of pressure were recorded at this very moment. At least two observers controlled the response.
(§5) Nociceptive thresholds (average of two trials) measured for each animal before single administration of investigated drugs (measurement of acute activity) or in day 0 before the first administration (measurement of prolonged activity) constituted the baseline pain threshold—A. Next, measurements of the withdrawal threshold to mechanical stimuli were performed at 5, 15, 30, 60, 90, 120, 180, 240, 300 min after drug administration (measurements of acute activity) or every day before drug administration (measurements of prolonged activity)—B.
(§6) In all experimental sessions (i.e. every day, each drug investigated) values of thresholds obtained (B) were compared to baseline (A).
(§7) Changes in pain threshold were calculated as a percent of baseline value according to the following formula:
(§8) [formula] • C—% of analgesia; A—pressure (in g), baseline pain threshold; B—pressure (in g) in consecutive measurements.
(§9) Percents of analgesia values calculated as above for individual animals were subsequently used to calculate average values in particular experimental groups and for statistical analysis.
The results are expressed as mean values±standard deviation of the mean (±S.E.M.).

Male Wistar rats [2] = assay: Prolonged activity on repeated daily p.o. administration (7 or 10 days), paw withdrawal test (Randall and Selitto); type: in vivo, rat; settings: for analgesic activity on separate administration, 7 days (oxycodone study): oxycodone 5 mg/kg; for pain threshold on separate administration, 10 days (tramadol study): tramadol 125 mg/kg
Procedure: as §1, §2
Prolonged activity of the investigated drugs was measured the following day after initial administration, but before the next administration as well as after cessation of administration. Drugs were administered for seven consecutive days (administration of morphine, codeine, dihydrocodeine, oxycodone) or for ten days (administration of tramadol).
as §3, §4, §5, §6, §7, §8, §9
The results are expressed as mean values±standard […] of the mean (±S.E.M.). The statistical significance of differences between groups was evaluated by Student's t-test. p≦0.05 was accepted as statistically significant.

[3] = single administration, 15 mg magnesium ions/kg p.o. with dihydrocodeine 50 mg/kg p.o.
[4] = single administration, 15 mg magnesium ions/kg p.o. with morphine 15 mg/kg p.o.
[5] = single administration, 15 mg magnesium ions/kg p.o. with oxycodone 5 mg/kg p.o.
[6] = single administration, 15 mg magnesium ions/kg p.o. with tramadol 125 mg/kg p.o.
[7] = single separate administration p.o., magnesium salts 15 mg magnesium ions/kg
[8] = 30 mg magnesium ions/kg p.o. with codeine 175 mg/kg p.o., 7 days
[9] = 30 mg magnesium ions/kg p.o. with morphine 15 mg/kg p.o., 7 days
[10] = separate administration p.o., magnesium lactate micronized 15 or normal 30 mg magnesium ions/kg

CC(O)C(=O)[O-].CC(O)C(=O)[O-].[Mg+2] (stereo not shown) [normal magnesium lactate, Magnesium lactate]
effect on analgesic activity of codeine (Male Wistar rats [1]; single administration, 15 mg magnesium ions/kg p.o. with codeine 175 mg/kg p.o.): significantly enhanced the analgesic activity of codeine | activity on dihydrocodeine analgesia in comparison (to micronized form / to magnesium lactate) (Male Wistar rats [1]; [3]): somewhat weaker | effect on dihydrocodeine analgesia (Male Wistar rats [1]; [3]): significantly enhanced dihydrocodeine analgesia | time course of activity on dihydrocodeine analgesia (Male Wistar rats [1]; [3]): gradually increased and reached a maximum between min 45 and 90 of the measurements and then became weaker by min 210 | effect on morphine analgesia (Male Wistar rats [1]; [4]): significantly enhanced morphine analgesia | enhancement of morphine analgesia lasted up to (Male Wistar rats [1]; [4]): 180 min | time at which enhancement of morphine analgesia appeared (Male Wistar rats [1]; [4]): 60 min | effect on oxycodone analgesia (Male Wistar rats [1]; [5]): significantly enhanced oxycodone analgesia | time at which activity on oxycodone analgesia appeared (Male Wistar rats [1]; [5]): 5 min | time course of activity on oxycodone analgesia (Male Wistar rats [1]; [5]): weakened by min 15 and 30 and was maintained up to min 45 | activity on tramadol analgesia in comparison (to micronized form / to magnesium chloride) (Male Wistar rats [1]; [6]): weaker than the micronized form | effect on antinociceptive activity of tramadol (Male Wistar rats [1]; [6]): increased antynociceptive activity of tramadol | analgesic activity on separate administration (codeine study) (Male Wistar rats [1]; single separate administration p.o., codeine 175 mg/kg, magnesium salts 15 mg magnesium ions/kg): did not exhibit analgesic activity | analgesic activity / pain perception threshold on separate administration (dihydrocodeine study) (Male Wistar rats [1]; single separate administration p.o., dihydrocodeine 50 mg/kg, magnesium salts 15 mg magnesium ions/kg): did not exhibit analgesic activity | analgesic activity / pain threshold when administered alone (morphine study) (Male Wistar rats [1]; single separate administration p.o., morphine 15 mg/kg, magnesium salts 15 mg magnesium ions/kg): Neither morphine nor magnesium lactate and chloride in micronized or normal form administered alone showed analgesic activity | analgesic activity on separate administration (oxycodone study) (Male Wistar rats [1]; [7]): showed no analgesic activity | analgesic activity on separate administration (tramadol study) (Male Wistar rats [1]; [7]): did not exhibit analgesic activity | activity on codeine analgesia compared to micronized form (Male Wistar rats [2]; [8]): significantly weaker | days on which activity on codeine analgesia appeared (Male Wistar rats [2]; [8]): only appeared on days 6 and 7 | activity on dihydrocodeine analgesia compared to micronized form (Male Wistar rats [2]; 30 mg magnesium ions/kg p.o. with dihydrocodeine 50 mg/kg p.o., 7 days): significantly weaker in comparison to the micronized form | activity on morphine analgesia compared to micronized form (Male Wistar rats [2]; [9]): much weaker | days on which activity on morphine analgesia appeared (Male Wistar rats [2]; [9]): only on days 6 and 7 | analgesic activity on separate administration, 7 days (codeine study) (Male Wistar rats [2]; separate administration p.o., codeine 175 mg/kg, magnesium lactate micronized 15 or normal 30 mg magnesium ions/kg): did not exhibit analgesic activity | pain threshold on separate administration, 7 days (dihydrocodeine study) (Male Wistar rats [2]; separate administration p.o., dihydrocodeine 50 mg/kg, magnesium lactate micronized 15 or normal 30 mg magnesium ions/kg): did not alter the pain threshold | pain threshold on separate administration, 7 days (morphine study) (Male Wistar rats [2]; separate administration p.o., morphine 15 mg/kg, magnesium lactate micronized 15 or normal 30 mg magnesium ions/kg): did not alter the pain threshold | analgesic activity on separate administration, 7 days (oxycodone study) (Male Wistar rats [2]; [10]): did not exhibit analgesic activity | pain threshold on separate administration, 10 days (tramadol study) (Male Wistar rats [2]; [10]): did not alter the pain threshold

COc1ccc2c3c1O[C@H]1C(=O)CC[C@@]4(O)[C@@H](C2)N(C)CC[C@]314 [oxycodone, reference compound]
analgesic activity on separate administration (oxycodone study) (Male Wistar rats [1]; [7]): showed no analgesic activity | analgesic activity on separate administration, 7 days (oxycodone study) (Male Wistar rats [2]; [10]): did not exhibit analgesic activity

COc1cccc(C2(O)CCCCC2CN(C)C)c1 (stereo not shown) [tramadol, reference compound]
analgesic activity on separate administration (tramadol study) (Male Wistar rats [1]; [7]): did not exhibit analgesic activity | pain threshold on separate administration, 10 days (tramadol study) (Male Wistar rats [2]; [10]): insignificantly intensified the threshold for mechanical nociceptive stimuli from days 6 to 10
